What all share (assay): DTP human tumour cell line panel, 48 h
Test [1] has as its system A549 NSCLC.
For test [2], the system named is BT-549 breast.
Test [3] relates to CCRF-CEM leukemia.
The subject of test [4] is HCC-2998 colon.
For test [5], the system named is M14 melanoma.
The test system of test [6] is MDA-MB-435.
Test [7] concerns OVCAR-3 ovarian.
Test [8] concerns SF-295 CNS.
In test [9] the test system is SF-539 CNS.
The subject of test [10] is SK-OV-3 ovarian.

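Briefly, cells in 96-well plates were exposed to five compound concentrations for 48 h, and endpoints were estimated by linear interpolation. The concentration for full growth arrest is given as TGI.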

The text below walks through data of PubChem BioAssay (NCI).

`C=C1CC(C)(c2cccc(Nc3nc4ccccc4c4occc34)c2)OC1=O` (stereo not given): the TGI – broadly, the concentration at which net growth stops – was 46.3 µM in test [1]; 17.4 µM in test [2]; 5.08 µM in test [3]; 5.84 µM in test [4]; 7.26 µM in test [5]; 21.8 µM in [6]. The TGI in test [7] is 17.5 µM; in [8], 34.9 µM; in test [9], 3.47 µM; in [10], 27.2 µM.

For `O=c1[nH]nc(Cc2ccc(Cl)cc2)n1/N=C/c1ccc([N+](=O)[O-])o1`, the TGI in test [1] was over 35.4 µM; in [2] it was 6.8 µM; in test [3] it was over 37 µM; in test [4] it was 4.82 µM; in [5] it was 5.68 µM; in test [6], 11.9 µM. Further, the TGI in [7] is 25.9 µM; in test [8], 16.2 µM; in test [9], 9.39 µM; in [10] it was over 36.3 µM.

Take `CCSC1=CC2(O)N(CCc3ccc(OC)c(OC)c3)C(=O)CC2(C(=O)OC)CC1=O` (stereo not given): the concentration for total growth inhibition (TGI) in test [1] is over 100 µM; in test [2], 32.8 µM; in test [3] it was over 100 µM; in test [4], 36 µM; in [5], 56.4 µM; in test [6], 46 µM. Also, the TGI in test [7] is 33.6 µM; in [8], over 100 µM; in test [9], 78.7 µM; in test [10], over 100 µM.

Turning to `NC(N)=NC1C(O)C(O)C(O)C(N=C(N)N)C1O` (stereo not given), the TGI in test [1], in test [2], in test [3], in test [4], in test [5] and in test [6] was over 100 µM in each case. The concentration for total growth inhibition (TGI) in test [7], in test [8], in [9] and in [10] was over 100 µM each time.

`Cc1nc(Nc2ccccc2Cl)sc1C(=O)CC(=O)C(N)=O`: the TGI in [1], in test [2], in test [3], in [4], in test [5] and in [6] was over 100 µM throughout. The TGI in [7], in test [8], in [9] and in test [10] was over 100 µM each time.

For `CCOC(=O)c1cc(Br)c(-c2onc(C)c2Br)[nH]1`, the concentration for total growth inhibition (TGI) in test [1], in test [2], in test [3], in test [4], in [5] and in test [6] was over 100 µM throughout. The TGI in [7] is over 100 µM; in test [8], over 100 µM; in test [9], over 100 µM; in [10], 74.4 µM.

In the case of `O=C1/C(=C/c2cccc3ccccc23)CCc2ccc([N+](=O)[O-])cc21`, the TGI is over 100 µM in test [1]; 45.5 µM in test [2]; over 100 µM in test [3]; over 100 µM in test [4]; over 100 µM in [5]; 22.6 µM in test [6]. The total growth inhibition concentration (TGI) in [7] was 12.7 µM; in test [8] it was 31.1 µM; in [9], 73.5 µM; in test [10], 77.8 µM.

Take `CC(C)Oc1cccc(N2C(Nc3ccccc3)=Nc3ccncc3S2(=O)=O)c1`: the concentration for total growth inhibition (TGI) was over 100 µM in [1]; 66.4 µM in test [2]; 62.4 µM in [3]; 71.5 µM in [4]; over 100 µM in test [5]; 57 µM in test [6]. The TGI in test [7] was 52.4 µM; in test [8], 95.1 µM; in test [9], 44.9 µM; in [10] it was over 100 µM.

`COC(=O)Cn1cnc2c(Cl)nc(Nc3ccccc3)nc21`: the total growth inhibition concentration (TGI) was over 100 µM in [1]; over 100 µM in [2]; 96.7 µM in [3]; 82.8 µM in test [4]; over 100 µM in [5]; 79.8 µM in test [6]. Further, the TGI in test [7] was 50.7 µM; in test [8], over 100 µM; in test [9] it was over 100 µM; in [10], over 100 µM.
